What was measured:
[1] = Physical stability study of spray-dried amorphous APIs stored at 75% RH, 25 °C (solid state by Raman, MDSC, PXRD); format: physicochemical; conditions: for Estimated Amorphous Content at Day 168 / Crystal Growth / Crystallization Initiation Propensity / Time to Complete Crystallization / Time to Start Crystallization: 75% RH at 25 °C; for Estimated Amorphous Content at Day 168: semi-quantitative Raman analysis; for Stability for 168 Days at 75% RH / Crystal Growth / Crystallization Initiation Propensity / Time to Complete Crystallization / Time to Start Crystallization: spray-dried amorphous API; for Stability for 168 Days at 75% RH: 25 °C; for Time to Complete Crystallization / Time to Start Crystallization: up to 168 days
Description: The amorphous solids were prepared by spray-drying. In short, solutions containing the APIs of interest were prepared by dissolving the crystalline powder in either ethanol, acetone, or a mixture of 90:10 (% w/w) ethanol/acetone prior to spray-drying. Any unwanted debris and particulate contaminants were removed by filtration (0.45 µm pore size). Thereafter, the solutions were spray-dried using a Büchi B-290-Mini Spray Dryer with an inert loop (Büchi Laboratoriums, Flawil, Switzerland) according to the processing parameters previously described by Edueng et al.. After spray-drying, the collected solids were divided and kept in two different wide-mouth aluminum containers. These open containers were placed in a vacuumed desiccator overnight to remove any residual solvent. The vacuum-dried solids were subsequently characterized with different solid-state analytical methods, studied for their supersaturation behavior, and stored in the stability chamber for 168 days (6 months). Following the overnight vacuum-drying, the spray-dried materials were placed in a stability chamber with a 75% relative humidity level and constant temperature of 25 °C. The samples were stored in open wide-mouth aluminum containers. Samples were withdrawn from the stability chamber at 1, 2, 7, 14, 28, 84, and 168 day(s) for the solid-state analyses. These analyses monitored the physical stability of the amorphous API, and the supersaturation study investigated the impact of solid-state changes on the supersaturation potential and crystallization kinetics. The preparation of these materials and the physical stability protocol are described in detail in Edueng et al..
A Twin-Twin (Bruker, Coventry, UK) measuring in Bragg–Brentano geometry and equipped with a sample rotator was used to collect the X-ray diffractograms of the unprocessed crystalline and freshly spray-dried APIs. The solid samples were gently ground with a mortar and pestle when the powder was too coarse. Thereafter, they were placed on silicon sample holders which rotated at 40 rpm during the measurement. The X-ray source was a rotating copper anode with an accelerating voltage of 40 kV and current of 40 mA. The emitted Cu Kα radiation (λ = 1.54 Å) was used in the measurements. A diffraction pattern in the 2Ө range between 5° and 40° was collected at a scanning step of 0.01° and 0.3 s exposure time at each step. Primary and secondary divergence slits of 0.40 and 2.48 mm, respectively, were used. Since this technique provides a more direct interpretation regarding the amorphous and/or crystalline content of samples, it was used to ensure that the spray-dried APIs were fully amorphous prior to the initiation of other analyses. Based on this information, the reference Raman spectra for the fully amorphous and fully crystalline samples of each compound could be established.
Modulated differential scanning calorimetry (MDSC) was performed to identify and monitor the solid-state form changes of the solids (amorphous, crystalline, or a mixture of both) and to determine the temperatures of glass transition (Tg), crystallization (Tc), and melting (Tm). Approximately 1–5 mg of sample was weighed and transferred into standard aluminum pans. The lids were pin-holed to allow evaporation of any solvent or moisture. Depending on the Tg, the samples were equilibrated at either −70 °C or 0 °C to allow for at least a 20 °C baseline prior to the Tg measurement, followed by heating up to 20–30 °C above the Tm at 3 °C/min and a temperature modulation of ±1 °C every 60 s. Analyses and integrations of the thermograms were performed using TA Instruments Universal Analysis 2000 for Windows (Version 4.5A, Sollentuna, Sweden) software.
In addition to MDSC, the samples were examined by Raman spectroscopy using a Rxn-2 Hybrid Raman Spectrometer (Kaiser Optical System Inc., Ann Arbor, MI, USA). […]

[2] = In vitro supersaturation under non-sink conditions (µDISS Profiler, tenfold supersaturation ratio, spray-dried solids); format: physicochemical; conditions: for RAUC (AUC ratio spray-dried/crystalline) / RCmax,app (Cmax,app ratio spray-dried/crystalline): tenfold supersaturation ratio, phosphate buffer pH 6.5, 37 °C, 60 min; for Ratio AUC (RAUC) / Ratio Cmax (RCmax,app): pH 6.5, 37 °C
Description: The protocol is described in Edueng et al.. In short, the experiment was initiated by constructing a standard curve (R^2 ≥ 0.97) covering the possible concentrations attained from the supersaturation. […] For this purpose, a small-scale dissolution apparatus, the µDISS Profiler (pION Inc., Billerica, MA, USA), was used. The temperature and stirring rate were maintained at 37 °C and 100 rpm, respectively, and the supersaturation behavior was monitored for 60 min. The experiments were conducted in triplicate for each sample type.
The effects of physical aging and/or crystallization upon storage on the performance at tenfold supersaturation were assessed on the basis of the following parameters: (i) the apparent maximum concentration achieved (Cmax,app); (ii) the area under the curve (AUC); and (iii) the crystallization rate constant (k) (see Figure 9). Cmax,app refers to the maximum supersaturation concentration attained by dissolving amorphous solid in the medium before a decline in concentration was observed. […] The crystallization rate constant (k) defines the rate at which a decrease in concentration was observed. It gives an indication of the crystallization rate upon dissolution and is expressed as the reciprocal of the x-axis time units.
These three parameters were determined using GraphPad Prism version 8.1.0 for Windows (GraphPad Software, San Diego, CA, USA). Cmax,app was obtained by determining descriptive statistics of the tabulated dissolution data. It corresponds to the maximum value or highest point in the dissolution data (referred to as “maximum” in the Graphpad software). The AUC was computed based on the trapezoidal rule. The Cmax,app and AUC of the fresh and the aged/crystallized spray-dried samples were divided by the Cmax,app and AUC of the crystalline samples to obtain the ratios of both parameters (see Equations (1) and (2)). The ratios were then referred to as RCmax,app and RAUC, respectively. The crystallization was approximated following first-order kinetics, leading to Equation (3). The k value was determined by performing a nonlinear curve fitting of Equation (3) from the time point of Cmax,app of the supersaturation profiles of the samples using the same software. (1) RCmax,app=Cmax,SD/Cmax,cryst (2) RAUC=AUCSD/AUCcryst (3) C(t)=(C0−C∞)·e^−k·t+C∞
In Equation (3), C0 is the fitted concentration at t = 0, C∞ is the estimated concentration at infinite time, and k is the rate constant. In our study, the concentration is expressed in µg/mL while k is expressed in min^−1.

[3] = aged and/or crystallized spray-dried (SD Tn, stored at 75% RH)
[4] = spray-dried samples (fresh and aged), as summarised in text from Figures 2 and 3
[5] = 2-day sample (SD T2D; 23% crystalline) stored at 75% RH
[6] = 2-day-old sample containing 23% crystallinity
[7] = 7-day sample (SD T7D; completely crystalline) stored at 75% RH

Nc1ccc(S(=O)(=O)Nc2nccs2)cc1 [Sulfathiazole, sulfathiazole]
Estimated Amorphous Content at Day 168 [1]: 0%
Stability for 168 Days at 75% RH [1]: Low
Crystal Growth [1]: Rapid
Crystallization Initiation Propensity [1]: High
Time to Complete Crystallization [1]: 1 days
Time to Start Crystallization [1]: 1 days
RAUC (AUC ratio spray-dried/crystalline) [2, 3]: 1.5
RCmax,app (Cmax,app ratio spray-dried/crystalline) [2, 3]: 1.5
RAUC (AUC ratio spray-dried/crystalline) ([2]; freshly spray-dried (SD T0)): 1.5
RCmax,app (Cmax,app ratio spray-dried/crystalline) ([2]; freshly spray-dried (SD T0)): 1.6

Cc1ccccc1N1C(=O)c2cc(S(N)(=O)=O)c(Cl)cc2NC1C (centres unmarked) [Metolazone, metolazone]
Estimated Amorphous Content at Day 168 [1]: 100%
Stability for 168 Days at 75% RH [1]: High
Crystallization Initiation Propensity [1]: Low
Time to Complete Crystallization [1]: >168 days
Time to Start Crystallization [1]: >168 days
Time to Start Crystallization ([1]; listed as metolazone): ≥ 168 days
RAUC (AUC ratio spray-dried/crystalline) [2, 3]: 1.8
RCmax,app (Cmax,app ratio spray-dried/crystalline) [2, 3]: 2.8
RAUC (AUC ratio spray-dried/crystalline) ([2]; freshly spray-dried (SD T0)): 1.5
RCmax,app (Cmax,app ratio spray-dried/crystalline) ([2]; freshly spray-dried (SD T0)): 2.8

COc1ccc(Cl)cc1C(=O)NCCc1ccc(S(=O)(=O)NC(=O)NC2CCCCC2)cc1 [Glibenclamide, glibenclamide]
Estimated Amorphous Content at Day 168 [1]: 94%
Estimated Amorphous Content at Day 168 ([1]; listed as glibenclamide): approximately 94%
Estimated crystalline content ([1]; after 168 days at 75% RH): 6%
Stability for 168 Days at 75% RH [1]: Moderate
Crystal Growth [1]: Slow
Crystallization Initiation Propensity [1]: High
Time to Complete Crystallization [1]: >168 days
Time to Start Crystallization [1]: 1 days
RAUC (AUC ratio spray-dried/crystalline) [2, 3]: 4.4
RCmax,app (Cmax,app ratio spray-dried/crystalline) [2, 3]: 7.6
RAUC (AUC ratio spray-dried/crystalline) ([2]; freshly spray-dried (SD T0)): 4.1
RCmax,app (Cmax,app ratio spray-dried/crystalline) ([2]; freshly spray-dried (SD T0)): 7.2
RAUC, times higher than the crystalline counterparts [2, 4]: ~4 times
RCmax,app, times higher than the crystalline counterparts [2, 4]: approximately 7 times

NS(=O)(=O)c1cc2c(cc1Cl)NCNS2(=O)=O [Hydrochlorothiazide, hydrochlorothiazide]
Estimated Amorphous Content at Day 168 [1]: 0%
Stability for 168 Days at 75% RH [1]: Low
Crystal Growth [1]: Rapid
Crystallization Initiation Propensity [1]: High
Time to Complete Crystallization [1]: 1 days
Time to Start Crystallization [1]: 1 days

CC(=O)N1CCN(c2ccc(OCC3COC(Cn4ccnc4)(c4ccc(Cl)cc4Cl)O3)cc2)CC1 (centres unmarked) [Ketoconazole, ketoconazole]
Estimated crystalline content ([1]; 2-day sample (T2D) at 75% RH): 23%
Estimated Amorphous Content at Day 168 [1]: 0%
Stability for 168 Days at 75% RH [1]: Low
Crystal Growth [1]: Rapid
Crystallization Initiation Propensity [1]: High
Time to Complete Crystallization [1]: 7 days
Time to Start Crystallization [1]: 1 days
Ratio AUC (RAUC) [2, 5]: 0.7
Ratio Cmax (RCmax,app) [2, 5]: 0.9
Decrease of AUC ratio versus fresh sample [2, 6]: 50%
Decrease of Cmax ratio (Cmax,app) versus fresh sample [2, 6]: 50%
Ratio AUC (RAUC) [2, 7]: 0.8
Ratio Cmax (RCmax,app) [2, 7]: 1.1
RAUC (AUC ratio spray-dried/crystalline) [2, 3]: 0.8
RCmax,app (Cmax,app ratio spray-dried/crystalline) [2, 3]: 1.1
Decrease of RCmax,app versus fresh sample ([2]; completely crystallized spray-dried sample): 50%
RAUC (AUC ratio spray-dried/crystalline) ([2]; freshly spray-dried (SD T0)): 1.6
RCmax,app (Cmax,app ratio spray-dried/crystalline) ([2]; freshly spray-dried (SD T0)): 2.0

C[C@]12CCC(=O)C=C1CC[C@@H]1[C@@H]2[C@@H](O)C[C@@]2(C)[C@H]1CC[C@]2(O)C(=O)CO [Hydrocortisone, hydrocortisone]
Estimated Amorphous Content at Day 168 [1]: ~89%
Estimated crystalline content ([1]; after 168 days at 75% RH): 11%
Stability for 168 Days at 75% RH [1]: Moderate
Crystal Growth [1]: Slow
Crystallization Initiation Propensity [1]: High
Time to Start Crystallization [1]: 1 days

CC1Cc2ccccc2N1NC(=O)c1ccc(Cl)c(S(N)(=O)=O)c1 (centres unmarked) [Indapamide, indapamide]
Estimated Amorphous Content at Day 168 [1]: 100%
Stability for 168 Days at 75% RH [1]: High
Crystallization Initiation Propensity [1]: Low
Time to Complete Crystallization [1]: >168 days
Time to Start Crystallization [1]: >168 days
Time to Start Crystallization ([1]; listed as indapamide): ≥ 168 days
RAUC (AUC ratio spray-dried/crystalline) [2, 3]: 2.1
RCmax,app (Cmax,app ratio spray-dried/crystalline) [2, 3]: 2.5
RAUC (AUC ratio spray-dried/crystalline) ([2]; freshly spray-dried (SD T0)): 1.9
RCmax,app (Cmax,app ratio spray-dried/crystalline) ([2]; freshly spray-dried (SD T0)): 2.3
